Literature values in patent publication US20180094248A1, “Necroptosis Signaling as a Therapeutic Target for Alzheimer's Disease” (Arizona Board of Regents on behalf of Arizona State …, priority 2016, published 2018).

Assays:
[1] = molecular target: RIPK3 (Homo sapiens, UniProt Q9Y572); conditions: Kaiser et al., 2013, J. Biol. Chem. 288:31268; cited from earlier work
[2] = molecular target: T1, MLKL (Homo sapiens, UniProt Q8NB16); conditions: Sun et al., 2012, Cell 148:213-27; cited from earlier work
T1 sequence (Q8NB16 1-471): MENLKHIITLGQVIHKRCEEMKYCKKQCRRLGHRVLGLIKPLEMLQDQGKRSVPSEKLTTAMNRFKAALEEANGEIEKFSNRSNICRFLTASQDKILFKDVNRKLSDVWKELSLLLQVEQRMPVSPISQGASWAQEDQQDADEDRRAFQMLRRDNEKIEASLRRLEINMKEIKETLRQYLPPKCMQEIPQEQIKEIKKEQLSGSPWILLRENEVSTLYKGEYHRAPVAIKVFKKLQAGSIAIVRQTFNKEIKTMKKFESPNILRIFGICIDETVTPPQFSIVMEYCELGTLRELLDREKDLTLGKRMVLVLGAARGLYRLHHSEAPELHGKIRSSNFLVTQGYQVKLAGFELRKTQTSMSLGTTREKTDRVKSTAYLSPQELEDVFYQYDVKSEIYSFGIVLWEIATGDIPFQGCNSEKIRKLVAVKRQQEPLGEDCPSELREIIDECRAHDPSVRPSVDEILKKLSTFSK

RIPK3, sequence (Q9Y572 whole entry): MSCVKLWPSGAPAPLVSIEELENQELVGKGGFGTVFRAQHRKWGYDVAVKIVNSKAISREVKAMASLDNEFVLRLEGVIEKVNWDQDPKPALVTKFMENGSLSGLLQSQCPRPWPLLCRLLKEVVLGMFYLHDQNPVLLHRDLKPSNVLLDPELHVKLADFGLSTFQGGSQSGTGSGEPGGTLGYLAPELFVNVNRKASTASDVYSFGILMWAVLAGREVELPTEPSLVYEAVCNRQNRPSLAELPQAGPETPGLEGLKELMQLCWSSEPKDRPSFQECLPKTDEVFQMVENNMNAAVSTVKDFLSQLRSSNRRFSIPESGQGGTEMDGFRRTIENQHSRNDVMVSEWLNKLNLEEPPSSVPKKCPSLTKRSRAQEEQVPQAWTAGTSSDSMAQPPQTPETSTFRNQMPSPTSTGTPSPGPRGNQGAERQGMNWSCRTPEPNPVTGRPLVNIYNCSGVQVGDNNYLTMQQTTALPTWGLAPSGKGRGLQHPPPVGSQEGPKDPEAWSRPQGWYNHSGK

SMILES	inhibition of RIPK3 (selectivity) [1]	inhibition of MLKL (selectivity) [2]
CC(C)S(=O)(=O)c1ccc2nccc(Nc3ccc4scnc4c3)c2c1 [GSK'872, N-(6-(Isopropylsulfonyl)quinolin-4-yl)benzo[d]thiazol-5-amine]	selectively inhibits RIPK3	–
COc1nccnc1NS(=O)(=O)c1ccc(NC(=O)/C=C/c2ccc([N+](=O)[O-])s2)cc1 [necrosulfonamide, (E)-N-[4-[[(3-Methoxy-2-pyrazinyl)amino]sulfonyl]phenyl]-3-(5-nitro-2-thienyl)-2-propenamide]	–	selectively inhibits MLKL
